What was measured:
lipoprotein lipase = experiment: Lipoprotein lipase activity in plasma and tissues of treated lean and obese rats; type: in vivo, rat; conditions: for Lipoprotein-lipase activity, WAT mesenteric, whole tissue of the rat / Lipoprotein-lipase activity, WAT periovaric, whole tissue of the rat / Lipoprotein-lipase activity, Muscle, whole tissue of the rat: 10 μmol/kg · d; for Lipoprotein-lipase activity, WAT mesenteric, whole tissue of the rat: calculated assuming all WAT had the specific activity of mesenteric WAT; for Lipoprotein-lipase activity, WAT periovaric, whole tissue of the rat: calculated assuming all WAT had the specific activity of periovaric WAT; for Lipoprotein-lipase activity, Liver, per gram of tissue protein / Lipoprotein-lipase activity, Liver, per unit of tissue weight / Lipoprotein-lipase activity, Liver, whole organ of the rat / Lipoprotein-lipase activity, Muscle, per gram of tissue protein / Lipoprotein-lipase activity, Muscle, per unit of tissue weight / Lipoprotein-lipase activity, Plasma / Lipoprotein-lipase activity, Plasma, per gram of protein / Lipoprotein-lipase activity, WAT mesenteric, per gram of tissue protein / Lipoprotein-lipase activity, WAT mesenteric, per unit of tissue weight / Lipoprotein-lipase activity, WAT periovaric, per gram of tissue protein / Lipoprotein-lipase activity, WAT periovaric, per unit of tissue weight / Lipoprotein-lipase activity, Plasma, whole compartment of the rat: daily gavage 10 μmol/kg · d; for Lipoprotein-lipase activity, Plasma, whole compartment of the rat: plasma mass taken as 2.75% of body weight; for overall lipoprotein lipase activity in the rat (muscle + liver + plasma + WAT): rough estimate
Experimental: Liver, muscle and WAT (white adipose tissue) samples were homogenized in 10 mM hepes buffer pH 7.5, containing 250 mM sucrose, 1 MM-EDTA and 1 mM dithiothreitol in order to measure lipoprotein lipase activity in tissues. Homogenates were clarified by centrifugation (10 min at 10,000×g) at 4° C. The assay mixture (pH 7.5) contained 0.6 mM tri-[9,10(n)-^3H]-oleoyl-glycerol, 50 mM MgCl2, 0.5 g/L albumin (fatty acid-free), 3 ml/L preheated (60 min at 50° C.)rat serum, 25 mM PIPES buffer and 0.02 ml of sample in a final volume of 0.2 ml; the incubation was carried out for 30 min at 25° C.; after the reaction was stopped, the [^3H]-oleate evolved was quantified. All measurements of lipoprotein lipase activity in plasma and liver homogenates were carried out in the presence of anti-rat hepatic lipase antiserum. The homogenate and plasma protein content were determined with the Bradford method.
The enzyme activity was expressed in nkat/L of plasma of nkat/kg of tissue; the values were also referred to plasma or tissue protein content. The overall share of potential activity of the enzymes studied was also estimated by determining the contribution of each organ/tissue: plasma, liver and WAT (white adipose tissue) enzyme activity in relation to body mass. The results are expressed as the total activity found per kg of body weight in a given tissue or compartment. The liver was directly weighed (3.38±0.10% of BW (body weight) for lean and 3.17±0.13% of BW for the obese). The mass of plasma was taken as a 2.75% of body weight (blood being 5% of body weight, and packed cell volume 45% of that value). Overall WAT lipoprotein lipase activity in both groups of animals was calculated using the mean values for either the periovaric or mesenteric locations of both sets of data and the proportions of WAT published for lean [15% of BW] control and oleoyl-estrone-treated [7% of BW] and obese Zucker fa/fa rat [35% BW] control and oleoyl-estrone-treated [28% BW]. Muscle mass was calculated also as a proportion of body weight: 43% for lean and 33 for obese rats.
Statistical analysis of the differences between groups was established using ANOVA programs and the Student's t test.

Wistar female rats = experiment: Dose dependence of plasma parameters after 10 days of daily oral gavage in normal Wistar female rats; type: in vivo, rat; conditions: for plasma 3-hydroxybutyrate / plasma glucose / plasma insulin / plasma non-esterified fatty acids / plasma total cholesterol / plasma triacylglycerols: female Wistar rats, 10 days
Experimental: Eight groups of 6 normal Wistar female rats each were used. The animals were kept under standard housing conditions and had free access to pellet food and tap water. All the rats received a daily oral gavage of 0.2 ml of sunflower oil through a stomach tube. This oil contained different amounts of oleoyl-estrone so that the rats received daily doses of 0, 0.2, 0.5, 1, 2, 5, 10 or 20 micromols per kg of body weight. After 10 days of daily gavages, the rats were killed and their blood extracted and used to obtain plasma through centrifugation. Plasma samples were used for the analysis of glucose, total cholesterol and triacylglycerols by means of a dry-strip procedure (Spotchem, Menarini, Firenze, Italy), the levels of 3-hydroxybutyrate were measured with the kit 907979 from Boehringer Mannheim (Mannheim, Germany), and non-esterified fatty acids with the kit 1383175 from the same company. Insulin levels were measured through radioimmunoassay (rat insulin kit, Amersham, Amersham, United Kingdom).

[1] = Wistar female rats, doses 0.2-20 micromols per kg, ANOVA P<0.05

## CCCCCCCC/C=C\CCCCCCCC(=O)Oc1ccc2c(c1)CC[C@@H]1[C@@H]2CC[C@]2(C)C(=O)CC[C@@H]12 [oleoyl-estrone]
Lipoprotein lipase; lean animals, vs control
  overall loss of lipoprotein lipase because of treatment: 37%
Lipoprotein lipase; lean rats, vs controls
  effect on lipoprotein lipase activity in plasma: generalized rise
  effect on lipoprotein lipase activity of the tissues studied: did not affect significantly
Lipoprotein lipase; lean rats
  Lipoprotein-lipase activity, WAT mesenteric, whole tissue of the rat: 133 ± 64 nkat/rat
  Lipoprotein-lipase activity, WAT periovaric, whole tissue of the rat: 33.2 ± 5.0 nkat/rat
  Lipoprotein-lipase activity, Liver, per gram of tissue protein: 1.74 ± 0.32 nkat/g P
  Lipoprotein-lipase activity, Liver, per unit of tissue weight: 204 ± 48 pkat/g
  Lipoprotein-lipase activity, Liver, whole organ of the rat: 1.12 ± 0.34 nkat/rat
  Lipoprotein-lipase activity, Muscle, per gram of tissue protein: 3.09 ± 0.57 nkat/g P
  Lipoprotein-lipase activity, Muscle, per unit of tissue weight: 110.3 ± 41.3 pkat/g
  Lipoprotein-lipase activity, Plasma: 11.76 ± 1.75 pkat/mL
  Lipoprotein-lipase activity, Plasma, per gram of protein: 147.8 ± 18.9 pkat/g P
  Lipoprotein-lipase activity, WAT mesenteric, per gram of tissue protein: 779 ± 384 nkat/g P
  Lipoprotein-lipase activity, WAT mesenteric, per unit of tissue weight: 10.25 ± 4.94 nkat/g
  Lipoprotein-lipase activity, WAT periovaric, per gram of tissue protein: 317 ± 111 nkat/g P
  Lipoprotein-lipase activity, WAT periovaric, per unit of tissue weight: 2.56 ± 0.39 nkat/g
  Lipoprotein-lipase activity, Plasma, whole compartment of the rat: 59.2 ± 11.6 pkat/rat
Lipoprotein lipase; lean rats, muscle mass calculated as 43% of body weight
  Lipoprotein-lipase activity, Muscle, whole tissue of the rat: 8.79 ± 0.72 nkat/rat
Lipoprotein lipase; lean treated rats
  overall lipoprotein lipase activity in the rat (muscle + liver + plasma + WAT): 152 nkat
Lipoprotein lipase; lean, vs control
  decrease in mesenteric WAT lipoprotein lipase: 64%
  decrease in periovaric WAT lipoprotein lipase: 45%
Lipoprotein lipase; obese animals, vs control
  overall loss of lipoprotein lipase because of treatment: 51%
Lipoprotein lipase; obese rats, vs control
  change of lipoprotein lipase activity in skeletal muscle: increased fourfold
Lipoprotein lipase; obese rats, vs controls
  effect on lipoprotein lipase activity in WAT: decreases
  effect on lipoprotein lipase activity in liver: no changes
  effect on lipoprotein lipase activity in plasma: increases
Lipoprotein lipase; obese rats
  Lipoprotein-lipase activity, WAT mesenteric, whole tissue of the rat: 129 ± 27 nkat/rat
  Lipoprotein-lipase activity, WAT periovaric, whole tissue of the rat: 135 ± 19 nkat/rat
  Lipoprotein-lipase activity, Liver, per gram of tissue protein: 1.41 ± 0.21 nkat/g P
  Lipoprotein-lipase activity, Liver, per unit of tissue weight: 182 ± 27 pkat/g
  Lipoprotein-lipase activity, Liver, whole organ of the rat: 2.48 ± 0.26 nkat/rat
  Lipoprotein-lipase activity, Muscle, per gram of tissue protein: 40.8 ± 4.4 nkat/g P
  Lipoprotein-lipase activity, Muscle, per unit of tissue weight: 1383 ± 168 pkat/g
  Lipoprotein-lipase activity, Plasma: 7.19 ± 1.76 pkat/mL
  Lipoprotein-lipase activity, Plasma, per gram of protein: 107.1 ± 23.6 pkat/g P
  Lipoprotein-lipase activity, WAT mesenteric, per gram of tissue protein: 1767 ± 420 nkat/g P
  Lipoprotein-lipase activity, WAT mesenteric, per unit of tissue weight: 1.40 ± 0.29 nkat/g
  Lipoprotein-lipase activity, WAT periovaric, per gram of tissue protein: 245 ± 51 nkat/g P
  Lipoprotein-lipase activity, WAT periovaric, per unit of tissue weight: 1.46 ± 0.21 nkat/g
  Lipoprotein-lipase activity, Plasma, whole compartment of the rat: 51.4 ± 9.3 pkat/rat
Lipoprotein lipase; obese rats, muscle mass calculated as 33% of body weight
  Lipoprotein-lipase activity, Muscle, whole tissue of the rat: 152 ± 18 nkat/rat
Lipoprotein lipase; obese treated rats
  overall lipoprotein lipase activity in the rat (muscle + liver + plasma + WAT): 338 nkat
Lipoprotein lipase; obese, vs control
  decrease in mesenteric WAT lipoprotein lipase: 87%
  decrease in periovaric WAT lipoprotein lipase: 56%
Wistar female rats; Wistar female rats, 10 days oral gavage
  doses giving lower insulin values than controls: ≥ 1 micromol/kg and day
Wistar female rats; [1]
  change in circulating levels of 3-hydroxybutyrate: no globally significant changes
  change in circulating levels of glucose: no globally significant changes
  change in circulating levels of non-esterified fatty acids: no globally significant changes
  change in circulating levels of triacylglycerols: no globally significant changes
Wistar female rats; Wistar female rats, vs controls
  drop in insulin levels: significant
Wistar female rats; daily gavage 0.2 μmol/kg · d
  plasma 3-hydroxybutyrate: 291 ± 40 µM
  plasma glucose: 6.35 ± 0.47 mM
  plasma insulin: 0.624 nM
  plasma non-esterified fatty acids: 184 ± 31 µM
  plasma total cholesterol: 1.21 ± 0.12 mM
  plasma triacylglycerols: 1.57 ± 0.43 mM
Wistar female rats; daily gavage 0.5 μmol/kg · d
  plasma 3-hydroxybutyrate: 189 ± 41 µM
  plasma glucose: 5.74 ± 0.31 mM
  plasma insulin: 0.497 ± 0.067 nM
  plasma non-esterified fatty acids: 273 ± 47 µM
  plasma total cholesterol: 1.02 ± 0.08 mM
  plasma triacylglycerols: 1.79 ± 0.23 mM
Wistar female rats; daily gavage 1 μmol/kg · d
  plasma 3-hydroxybutyrate: 305 ± 56 µM
  plasma glucose: 5.71 ± 0.46 mM
  plasma insulin: 0.241 ± 0.044 nM
  plasma non-esterified fatty acids: 147 ± 30 µM
  plasma total cholesterol: 1.13 ± 0.15 mM
  plasma triacylglycerols: 1.26 ± 0.26 mM
Wistar female rats; daily gavage 2 μmol/kg · d
  plasma 3-hydroxybutyrate: 263 ± 27 µM
  plasma glucose: 5.76 ± 0.20 mM
  plasma insulin: 0.280 ± 0.036 nM
  plasma non-esterified fatty acids: 281 ± 44 µM
  plasma total cholesterol: 1.01 ± 0.27 mM
  plasma triacylglycerols: 1.70 ± 0.11 mM
Wistar female rats; daily gavage 5 μmol/kg · d
  plasma 3-hydroxybutyrate: 300 ± 64 µM
  plasma glucose: 5.64 ± 0.21 mM
  plasma insulin: 0.275 ± 0.053 nM
  plasma non-esterified fatty acids: 213 ± 48 µM
  plasma total cholesterol: 1.03 ± 0.13 mM
  plasma triacylglycerols: 1.91 ± 0.33 mM
Wistar female rats; daily gavage 10 μmol/kg · d
  plasma 3-hydroxybutyrate: 301 ± 42 µM
  plasma glucose: 5.90 ± 0.31 mM
  plasma insulin: 0.262 ± 0.050 nM
  plasma non-esterified fatty acids: 152 ± 24 µM
  plasma total cholesterol: 0.66 ± 0.09 mM
  plasma triacylglycerols: 1.39 ± 0.14 mM
Wistar female rats; daily gavage 20 μmol/kg · d
  plasma 3-hydroxybutyrate: 237 ± 47 µM
  plasma glucose: 5.62 ± 0.20 mM
  plasma insulin: 0.223 ± 0.041 nM
  plasma non-esterified fatty acids: 122 ± 39 µM
  plasma total cholesterol: 0.53 ± 0.05 mM
  plasma triacylglycerols: 0.92 ± 0.11 mM

From patent US20040138193A1, “Oestrogen fatty acid monoester as a hypolipidaemic and antidiabetic agent” (priority 2001, published 2004)
